Results: ChEMBL document CHEMBL4321872, “Engineering a Potent, Long-Acting, and Periphery-Restricted Oxytocin Receptor Agonist with Anorexigenic and Body Weight Reducing Effects” (J Med Chem, 2020)
Activity calls are given as the source filed them. The rule behind the calls is not given here. Numbered stars: 1 amine (or outer) side, 2 acyl side, 3 side chain; on linkers, the order of the positions; unused ones are H or OH. Bridge positions count the residues as written; N and C are the ends. Square brackets hold non-standard residues; d marks the D form. Side chains are listed from the residue outwards. Peptide text beside a SMILES is read from it. * marks the point of attachment. X1 = O=C(O)CCCCCCCCCCCCCCCCC(=O)N[C@@H](CCCCNC(=O)CCOCCOCCNC(=O)CCOCCOCCNC(=O)C*)C(=O)O; X4 = O=C(O)CCCCCCCCCCCCCCCCC(=O)NCCOCCOCCOCCNC(=O)C*; PEG8 = NCCOCCOCCOCCOCCOCCOCCOCCOCCC(=O)O; X3 = CCCCCCCCCCCCCC(=O)NCCOCCOCCNC(=O)C*; Palmitoyl = CCCCCCCCCCCCCCCC(=O)*; X2 = O=C(CCC[*:2])[*:1]; Sar = CNCC(=O)O; Cam = NC(=O)C*

Columns and labels:
[1] = Half life in C57BL/6J mouse at 20 mg/kg, sc by LC-MS/MS analysis; assay type: ADME, organism-based; conditions: in vivo
[2] = molecular target: T1, Oxytocin receptor (Homo sapiens, UniProt P30559); test: Agonist activity at recombinant human Gi/Go-coupled OTR expressed in CHOK1 cells assessed as induction of beta-arrestin recruitment measured after 90 mins in presence of 10% FBS by pathhunter assay; assay type: cell-based
T1 sequence (P30559 whole entry): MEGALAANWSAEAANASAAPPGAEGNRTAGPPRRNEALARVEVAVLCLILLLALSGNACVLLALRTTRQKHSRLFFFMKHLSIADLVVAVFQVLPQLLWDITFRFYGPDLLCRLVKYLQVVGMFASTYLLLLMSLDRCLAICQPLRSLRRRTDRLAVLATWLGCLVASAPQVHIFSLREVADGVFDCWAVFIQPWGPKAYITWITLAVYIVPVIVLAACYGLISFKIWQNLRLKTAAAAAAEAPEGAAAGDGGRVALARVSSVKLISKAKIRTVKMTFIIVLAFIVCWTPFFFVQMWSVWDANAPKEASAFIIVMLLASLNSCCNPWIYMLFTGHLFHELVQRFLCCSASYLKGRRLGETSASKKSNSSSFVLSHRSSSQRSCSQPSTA

[3] = molecular target: T2, Oxytocin receptor (Homo sapiens) (UniProt P30559); test: Agonist activity at recombinant human Gi/Go-coupled OTR expressed in CHOK1 cells assessed as induction of beta-arrestin recruitment measured after 90 mins in presence of 10% FBS by pathhunter assay relative to oxytocin; assay type: cell-based
T2 sequence (whole entry): T1 sequence (P30559 whole entry)

[4] = molecular target: T1, Oxytocin receptor; test: Agonist activity at recombinant human Gi/Go-coupled OTR expressed in CHOK1 cells assessed as induction of beta-arrestin recruitment measured after 90 mins in absence of 10% FBS by pathhunter assay; assay type: cell-based
[5] = Ratio of drug level in brain to plasma in C57BL/6 mouse at 1 mg/kg, sc measured after 7 hrs by LC-MS analysis; assay type: ADME, organism-based; conditions: read-out: BPR
[6] = tested on: Mus musculus; test: Anorexigenic activity in sc dosed C57BL/6J mouse […] model assessed as reduction in food intake administered once daily for 9 days and measured daily during compound dosing; assay type: functional, organism-based
[7] = tested on: Mus musculus; test: Anorexigenic activity in C57BL/6J mouse assessed as reduction in body weight at 0.1 mg/kg, sc measured daily for 2 days; assay type: functional, organism-based
[8] = Drug level in C57BL/6 mouse at 1 mg/kg, sc measured after 24 hrs by LC-MS analysis; assay type: ADME, organism-based; conditions: in vivo, read-out: Drug uptake
[9] = Cmax in C57BL/6 mouse plasma at 1 mg/kg, sc by LC-MS analysis; assay type: ADME, organism-based; parameters: dose 1 mg/kg, route subcutaneous
[10] = Aqueous solubility of the compound; assay type: physicochemical; conditions: buffer
[11] = molecular target: T2, Oxytocin receptor (Homo sapiens); test: Agonist activity at recombinant human Gi/Go-coupled OTR expressed in CHOK1 cells assessed as induction of beta-arrestin recruitment measured after 90 mins in absence of 10% FBS by pathhunter assay relative to oxytocin; assay type: cell-based
[12] = AUC (0 to last) in C57BL/6 mouse plasma at 1 mg/kg, sc by LC-MS analysis; assay type: ADME, organism-based; parameters: dose 1 mg/kg, time 0 - last, route subcutaneous
[13] = molecular target: T2, Oxytocin receptor (Homo sapiens); test: Ratio of EC50 for agonist activity at recombinant human Gi/Go-coupled OTR expressed in CHOK1 cells in presence of 10% FBS to EC50 for agonist activity at recombinant human Gi/Go-coupled OTR expressed in CHOK1 cells in absence of 10% FBS; assay type: cell-based
[14] = tested on: Mus musculus; test: Anorexigenic activity in sc dosed C57BL/6J mouse […] model assessed as reduction in body weight administered once daily for 9 days and measured daily during compound dosing; assay type: functional, organism-based
[15] = Terminal half life in C57BL/6 mouse plasma at 1 mg/kg, sc by LC-MS analysis; assay type: ADME, organism-based; conditions: read-out: beta t1/2 (converted)
[16] = Tmax in C57BL/6 mouse plasma at 1 mg/kg, sc by LC-MS analysis; assay type: ADME, organism-based
[17] = molecular target: Vasopressin V2 receptor (Homo sapiens, UniProt P30518); test: Agonist activity at recombinant human V2 receptor expressed in CHOK1 cells assessed as increase in cAMP level measured after 30 mins by HTRF assay; assay type: cell-based
Vasopressin V2 receptor, sequence (P30518 whole entry): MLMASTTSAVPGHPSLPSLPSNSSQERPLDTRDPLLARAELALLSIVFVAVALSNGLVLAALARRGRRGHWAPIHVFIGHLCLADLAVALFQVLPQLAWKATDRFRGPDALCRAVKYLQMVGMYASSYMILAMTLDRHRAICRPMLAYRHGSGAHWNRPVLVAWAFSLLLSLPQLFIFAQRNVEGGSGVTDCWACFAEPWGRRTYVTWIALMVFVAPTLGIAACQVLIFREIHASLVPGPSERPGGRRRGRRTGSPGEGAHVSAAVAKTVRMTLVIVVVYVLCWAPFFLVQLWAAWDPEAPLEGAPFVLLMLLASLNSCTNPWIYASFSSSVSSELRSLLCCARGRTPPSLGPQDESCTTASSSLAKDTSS

[18] = tested on: Mus musculus; test: Anorexigenic activity in C57BL/6J mouse assessed as reduction in food intake at 0.1 mg/kg, sc measured at 3 hrs interval for 24 hrs; assay type: functional, organism-based
[19] = tested on: Mus musculus; test: Anorexigenic activity in C57BL/6J mouse assessed as reduction in food intake at 0.5 mg/kg, sc measured at 3 hrs interval for 6 hrs; assay type: functional, organism-based
[20] = tested on: Mus musculus; test: Anorexigenic activity in C57BL/6J mouse […] model assessed as reduction in body weight at 0.1 mg/kg, sc administered once daily for 9 days and measured daily during compound dosing; assay type: functional, organism-based
[21] = Half life in C57BL/6J mouse; assay type: ADME; conditions: in vivo
[22] = tested on: Mus musculus; test: Anorexigenic activity in C57BL/6J mouse assessed as reduction in body weight at 0.5 mg/kg, sc measured daily for 2 days; assay type: functional, organism-based
[23] = tested on: Mus musculus; test: Anorexigenic activity in C57BL/6J mouse assessed as reduction in food intake at 0.5 mg/kg, sc measured at 24 hrs post-dose; assay type: functional, organism-based
[24] = tested on: Mus musculus; test: Anorexigenic activity in C57BL/6J mouse […] model assessed as reduction in food intake at 0.1 mg/kg, sc administered once daily for 9 days and measured daily during compound dosing; assay type: functional, organism-based

Compound	EC50 [2] [nM]	%max [3] [%]	EC50 [4] [nM]	%max [11] [%]	Ratio EC50 [13]	other results
CCCCCCCCCCCCCCCC(=O)NCCOCCOCCOCCOCCOCCOCCOCCOCCC(=O)NCCCC[C@H](NC(=O)CNC(=O)[C@@H]1CSSC[C@H](N)C(=O)N[C@@H](Cc2ccc(O)cc2)C(=O)N[C@@H]([C@@H](C)CC)C(=O)N[C@@H](CCC(N)=O)C(=O)N[C@@H](CC(N)=O)C(=O)N1)C(=O)NCC(N)=O (H-CYIQNCGK([PEG8-Palmitoyl])G-NH2; disulfide 1-6)						half-life [1]: 1200 min
CC(C)C[C@H](NC(=O)[C@@H]1CCCN1C(=O)[C@@H]1CSCCCC(=O)N[C@@H](Cc2ccc(O)cc2)C(=O)N[C@@H](CSCC(N)=O)C(=O)N[C@@H](CCC(N)=O)C(=O)N[C@@H](CC(N)=O)C(=O)N1)C(=O)NCC(N)=O (YC(Cam)QNCPLG-NH2; linker N-5 via X2)	> 1000	2				
CC[C@H](C)[C@@H]1NC(=O)[C@H](Cc2ccc(O)cc2)NC(=O)CCCSC[C@@H](C(=O)N2CCC[C@H]2C(=O)N[C@@H](CC(C)C)C(=O)NCC(N)=O)NC(=O)[C@H](CC(N)=O)NC(=O)[C@H](CSCC(N)=O)NC1=O (YIC(Cam)NCPLG-NH2; linker N-5 via X2)	14.4	47				
CC[C@H](C)[C@@H]1NC(=O)[C@H](Cc2ccc(O)cc2)NC(=O)CCCSC[C@@H](C(=O)NCC(=O)N[C@@H](CSCC(=O)NCCOCCOCCC(=O)NCCOCCOCCC(=O)NCCCC[C@H](NC(=O)CCCCCCCCCCCCCCCCC(=O)O)C(=O)O)C(=O)NCC(N)=O)NC(=O)[C@H](CC(N)=O)NC(=O)[C@H](CCC(N)=O)NC1=O (YIQNCGC(X1)G-NH2; linker N-5 via X2)	193		2.58	125	74.7	Kp at 7 h [5]: 0.005; Activity [6]: Dose-dependent effect; Activity [7]: Active; concentration at 24 h [8]: > 850 nM; Cmax [9]: 9110 ng/mL; solubility [10]: Soluble; AUC(0-t) [12]: 350 µg·h/mL; Activity [14]: Dose-dependent effect; half-life [15]: 1450 min; Tmax [16]: 7 h; EC50 [17]: 1800 nM; Activity [18]: Active
CC[C@H](C)[C@@H]1NC(=O)[C@H](Cc2ccc(O)cc2)NC(=O)CCCSC[C@@H](C(=O)NCC(=O)N[C@@H](CSCC(=O)NCCOCCOCCC(=O)NCCOCCOCCC(=O)NCCCC[C@H](NC(=O)CCCCCCCCCCCCCCCCC(=O)O)C(=O)O)C(=O)N(C)CC(N)=O)NC(=O)[C@H](CC(N)=O)NC(=O)[C@H](CCC(N)=O)NC1=O (YIQNCGC(X1)[Sar]-NH2; linker N-5 via X2)	464		65.5	50	7.08	
CC[C@H](C)[C@@H]1NC(=O)[C@H](Cc2ccc(O)cc2)NC(=O)CCCSC[C@@H](C(=O)N2CCC[C@H]2C(=O)N[C@@H](CSCC(N)=O)C(=O)NCC(N)=O)NC(=O)[C@H](CC(N)=O)NC(=O)[C@H](CCC(N)=O)NC1=O (YIQNCPC(Cam)G-NH2; linker N-5 via X2)	4.8	97				
CC[C@H](C)[C@@H]1NC(=O)[C@H](Cc2ccc(OC)cc2)NC(=O)CCCSC[C@@H](C(=O)N2CCC[C@H]2C(=O)N[C@@H](CC(C)C)C(=O)NCC(N)=O)NC(=O)[C@H](CC(N)=O)NC(=O)[C@H](CCC(N)=O)NC1=O [CARBETOCIN] (Y(Me)IQNCPLG-NH2; linker N-5 via X2)						Activity [19]: Active; Activity [20]: Active; half-life [21]: 40 min; Activity [22]: inactive; Activity [23]: inactive; Activity [24]: Active
CC[C@H](C)[C@@H]1NC(=O)[C@H](Cc2ccc(O)cc2)NC(=O)[C@@H](N)CSSC[C@@H](C(=O)N2CCC[C@H]2C(=O)N[C@@H](CC(C)C)C(=O)NCC(N)=O)NC(=O)[C@H](CC(N)=O)NC(=O)[C@H](CCC(N)=O)NC1=O [OXYTOCIN]						half-life [21]: 2 to 3 min

Continued, in another order:

EC50 [2] [nM]	%max [3] [%]	EC50 [4] [nM]	%max [11] [%]	Ratio EC50 [13]	Compound	other results
> 1000	2.3				CCCCCCCCCCCCCC(=O)NCCOCCOCCNC(=O)CSC[C@@H]1NC(=O)[C@H](Cc2ccc(O)cc2)NC(=O)CCCSC[C@@H](C(=O)N2CCC[C@H]2C(=O)N[C@@H](CC(C)C)C(=O)NCC(N)=O)NC(=O)[C@H](CC(N)=O)NC(=O)[C@H](CCC(N)=O)NC1=O (YC(X3)QNCPLG-NH2; linker N-5 via X2)	
> 1000	5.8				CCCCCCCCCCCCCC(=O)NCCOCCOCCNC(=O)CSC[C@@H]1NC(=O)[C@H]([C@@H](C)CC)NC(=O)[C@H](Cc2ccc(O)cc2)NC(=O)CCCSC[C@@H](C(=O)N2CCC[C@H]2C(=O)N[C@@H](CC(C)C)C(=O)NCC(N)=O)NC(=O)[C@H](CC(N)=O)NC1=O (YIC(X3)NCPLG-NH2; linker N-5 via X2)	
18.9		5.27	116	3.6	CCCCCCCCCCCCCC(=O)NCCOCCOCCNC(=O)CSC[C@H](NC(=O)CNC(=O)[C@@H]1CSCCCC(=O)N[C@@H](Cc2ccc(O)cc2)C(=O)N[C@@H]([C@@H](C)CC)C(=O)N[C@@H](CCC(N)=O)C(=O)N[C@@H](CC(N)=O)C(=O)N1)C(=O)NCC(N)=O (YIQNCGC(X3)G-NH2; linker N-5 via X2)	solubility [10]: Soluble
56.9		10.5	57	5.4	CCCCCCCCCCCCCC(=O)NCCOCCOCCNC(=O)CSC[C@H](NC(=O)CNC(=O)[C@@H]1CSCCCC(=O)N[C@@H](Cc2ccc(O)cc2)C(=O)N[C@@H]([C@@H](C)CC)C(=O)N[C@@H](CCC(N)=O)C(=O)N[C@@H](CC(N)=O)C(=O)N1)C(=O)N(C)CC(N)=O (YIQNCGC(X3)[Sar]-NH2; linker N-5 via X2)	
173		3.41	117	50.9	CC[C@H](C)[C@@H]1NC(=O)[C@H](Cc2ccc(O)cc2)NC(=O)CCCSC[C@@H](C(=O)NCC(=O)N[C@@H](CSCC(=O)NCCOCCOCCOCCNC(=O)CCCCCCCCCCCCCCCCC(=O)O)C(=O)NCC(N)=O)NC(=O)[C@H](CC(N)=O)NC(=O)[C@H](CCC(N)=O)NC1=O (YIQNCGC(X4)G-NH2; linker N-5 via X2)	solubility [10]: Soluble
831		52.4	34	15.9	CC[C@H](C)[C@@H]1NC(=O)[C@H](Cc2ccc(O)cc2)NC(=O)CCCSC[C@@H](C(=O)NCC(=O)N[C@@H](CSCC(=O)NCCOCCOCCOCCNC(=O)CCCCCCCCCCCCCCCCC(=O)O)C(=O)N(C)CC(N)=O)NC(=O)[C@H](CC(N)=O)NC(=O)[C@H](CCC(N)=O)NC1=O (YIQNCGC(X4)[Sar]-NH2; linker N-5 via X2)	
5.28	70				CCCCCCCCCCCCCC(=O)NCCOCCOCCNC(=O)CSC[C@H](NC(=O)[C@@H]1CCCN1C(=O)[C@@H]1CSCCCC(=O)N[C@@H](Cc2ccc(O)cc2)C(=O)N[C@@H]([C@@H](C)CC)C(=O)N[C@@H](CCC(N)=O)C(=O)N[C@@H](CC(N)=O)C(=O)N1)C(=O)NCC(N)=O (YIQNCPC(X3)G-NH2; linker N-5 via X2)	
